For four compounds, CC50 and IC50 results are on record in patent US20220184077A1, “ANTI-VIRAL ACTIVITY OF VPS34 INHIBITORS” (Deciphera Pharmaceuticals, LLC, priority 2020, published 2022).

Data set [1] is described as follows: in vitro. The conditions noted are these: African green monkey. It counts as cell-based. The method, then:
Compound cytotoxicity (CC50) is assessed in a BSL-2 counter screen as follows: Host cells in media are added in 25 μl aliquots (4000 cells/well) to each well of assay ready plates prepared with test compounds as above. […] DMSO is maintained at a constant concentration for all wells (0.3%) as dictated by the dilution factor of stock test compound concentrations. After incubating plates at 37° C./5% CO2 and 90% humidity for 72 hours, 30 μl Cell Titer-Glo (Promega) is added to each well. Luminescence is read using a BMG PHERAstar plate reader following incubation at room temperature for 10 minutes to measure cell viability.

In data set [2] the test system is SARS-CoV-2. As to the kind of experiment: microbe, parasite or virus in culture. It counts as cell-based. The conditions noted are these: Severe acute respiratory syndrome coronavirus 2, A549-ACE2, 48 h; read-out: IC50 for inhibition of SARS CoV-2 mediated cell killing.
Data set [3] can be described thus: in vitro. Conditions: human.
Data set [4] deals with coronavirus USA_WA1/2020 SARS CoV-2. Briefly: SARS CoV-2 CPE assay for antiviral activity (Vero E6 host cells, Cell Titer-Glo). It counts as cell-based. The conditions noted are these: read-out: IC50 for inhibition of SARS CoV-2 mediated cell killing. Background: ATP-based viability assays read luminescence as a measure of living cells.
Where [5] appears, read: Vero C1008, Vero E6 cells, 72 hours, 10-point dose response, high concentration 15 μM.

Structures are written as SMILES. Where two headings read alike, the source gives them in different places.

Turning to `Cc1nccc(Nc2cc(-c3cc(-c4cccnc4C(F)(F)F)[nH]c(=O)c3)ccn2)n1` [Compound 1], the CC50 at 72 h in data set [1] was more than 30 µM. In addition, the 50% inhibitory concentration (IC50) (as a rule, the concentration needed to halve the response being measured) in data set [2] turned out to be 0.059 µM; in data set [4] (setting [5]), 0.12 µM. The compound also registered a CC50 in data set [3] of 2 µM.

In data set [1], `Cc1nccc(Nc2cc(-c3cc(-c4ccccc4Cl)[nH]c(=O)c3)ccn2)n1` [Compound 2] showed a CC50 at 72 h of 0.482 µM. Moreover, the IC50 in data set [2] and in data set [4] (setting [5]) was less than 0.02 µM throughout. The compound further returned a CC50 in data set [3] of 0.159 µM.

Take `Cc1nccc(Nc2cc(-c3cc(-c4ccccc4C(F)(F)F)n(C)c(=O)c3)ccn2)n1` [Compound 3]: the CC50 at 72 h in data set [1] turned out to be 1960 µM. In addition, the 50% inhibitory concentration (IC50) in data set [2] was less than 0.02 µM; in data set [4] (Vero C1008, 72 h), 0.036 µM. The same compound returned a CC50 in data set [3] of 1370 µM.

As to `CCS(=O)(=O)N1CCN(c2cc(-c3ccnc(Nc4ccnc(C)n4)c3)cc(=O)[nH]2)C(C(F)(F)F)C1` (stereo not shown) [Compound 4], in data set [1], the CC50 at 72 h is 2760 µM. Also, the IC50 turned out to be 0.035 µM in data set [2] and 0.109 µM in data set [4] (Vero C1008, 72 h). For the same compound, the CC50 in data set [3] was found to be 0.557 µM.
